Measurements published in PMC11855827, “High-Throughput Screening of Five Compound Libraries for Anthelmintic Activity and Toxicity Leads to the Discovery of Two Flavonoid Compounds” (International Journal of Molecular Sciences, 2025).
Where two headings read alike, the source gives them in different places.

Tested on: C. elegans
Test: microbe, parasite or virus in culture
Conditions: Caenorhabditis elegans
[1] = 0 h, read-out: Percentage of motility inhibition 0 h, Table S2, C. elegans SS assay, 110 μM, 0 h, averages of 4 data points
[2] = 24 h, read-out: Percentage of motility inhibition 24 h, Table S2, C. elegans SS assay, 110 μM, 24 h, averages of 4 data points

| Structure (SMILES) | inhibition at 110 µM [1] | inhibition at 110 µM [2] |
| --- | --- | --- |
| C[C@@H]1CCO[C@H]2Cn3cc(C(=O)NCc4ccc(F)cc4F)c(=O)c(O)c3C(=O)N12 [Dolutegravir] | 25% | 3% |
| C=C1C[C@@]23CC[C@H]4[C@@](C)(CCC[C@@]4(C)C(=O)O[C@@H]4O[C@H](CO)[C@@H](O)[C@H](O)[C@H]4O)[C@@H]2CC[C@]1(O[C@@H]1O[C@H](CO)[C@@H](O)[C@H](O)[C@H]1O[C@@H]1O[C@@H](C)[C@H](O)[C@@H](O)[C@H]1O)C3 [Dulcoside A] | 0% | 11% |
| N[C@@H]1CON=C1O [D‐Cycloserine] | 12% | 13% |
| O=c1c2ccccc2[se]n1-c1ccccc1 [Ebselen] | 13% | 12% |
| C=C(CC[C@@H](C(=O)O)[C@H]1CC[C@@]2(C)C3=C(CC[C@]12C)[C@@]1(C)CC[C@H](O)C(C)(C)[C@@H]1CC3)C(C)C [Eburicoic acid] | 27% | 56% |
| COc1cc(O)ccc1/C=C/C(=O)c1ccc(O)cc1 [Echinatin] | 17% | 10% |
| O=C1Nc2ccc(Cl)cc2[C@@](C#CC2CC2)(C(F)(F)F)O1 [Efavirenz] | 29% | 29% |
| CC/C=C\C/C=C\C/C=C\C/C=C\C/C=C\CCCC(=O)O [Eicosapentaenoic Acid] | 0% | 4% |
| COc1cc2c(cc1Cc1cccc(Cl)c1F)c(=O)c(C(=O)O)cn2[C@H](CO)C(C)C [Elvitegravir] | 23% | 48% |
| Nc1nc(=O)n([C@@H]2CS[C@H](CO)O2)cc1F [Emtricitabine] | 26% | 32% |
| CC(=O)O[C@@H]1C[C@]23C4=CC[C@@]5(C)[C@H](C(=O)O)[C@@](C)([C@H](C)C(C)C)CC[C@]5(C)[C@H]4CC[C@H]2[C@@](C)(COC3O)[C@H]1O[C@@H]1O[C@H](CO)[C@@H](O)[C@H](O)[C@H]1O (stereo partly drawn) [Enfumafungin] | 0% | 60% |
| C=C(C)[C@@H]1CC[C@]2(C(=O)O)CC[C@]3(C)[C@H](CC[C@@H]4[C@@]5(C)CC[C@@H](O)C(C)(C)[C@@H]5CC[C@]43C)[C@@H]12 [Epibetulinic acid] | 14% | 17% |
| CC(=O)O[C@@H]1C[C@H]2C(C)(C)C(=O)C=C[C@]2(C)[C@H]2CC[C@@]3(C)[C@H](c4ccoc4)C(=O)[C@H]4O[C@]43[C@@]21C [Epoxyazadiradione] | 19% | 47% |
| C[C@@H]1O[C@@H](OC[C@H]2O[C@@H](Oc3cc(O)c4c(c3)O[C@H](c3ccc(O)c(O)c3)CC4=O)[C@H](O)[C@@H](O)[C@@H]2O)[C@H](O)[C@H](O)[C@H]1O [Eriocitrin] | 54% | 16% |
| O=C1C[C@@H](c2ccc(O)c(O)c2)Oc2cc(O)cc(O)c21 [Eriodictyol] | 0% | 14% |
| CC1(C)CC[C@]2(CO)CC[C@]3(C)C(=CC[C@@H]4[C@@]5(C)CC[C@H](O)C(C)(C)[C@@H]5CC[C@]43C)[C@@H]2C1 [Erythrodiol] | 11% | 68% |
| CCOC(=O)CCC(=O)O[C@H]1[C@H](O[C@@H]2[C@@H](C)[C@H](O[C@H]3C[C@@](C)(OC)[C@@H](O)[C@H](C)O3)[C@@H](C)C(=O)O[C@H](CC)[C@@](C)(O)[C@H](O)[C@@H](C)C(=O)[C@H](C)C[C@@]2(C)O)O[C@H](C)C[C@@H]1N(C)C [Erythromycin Ethylsuccinate] | 24% | 7% |
| C/C=C(\C)C(=O)O[C@H]1[C@H](OC(C)=O)[C@]2(CO)[C@H](O)C[C@]3(C)C(=CC[C@@H]4[C@@]5(C)CC[C@H](O[C@@H]6O[C@H](C(=O)O)[C@@H](O[C@@H]7O[C@H](CO)[C@@H](O)[C@H](O)[C@H]7O)[C@H](O)[C@H]6O[C@@H]6O[C@H](CO)[C@@H](O)[C@H](O)[C@H]6O)[C@](C)(CO)[C@@H]5CC[C@]43C)[C@@H]2CC1(C)C [Escin IA] | 0% | 0% |
